One data set is described as follows: in vivo. The settings on record: plasma. On the procedure:
Eight to 12-week old male Sprague Dawley rats (Harlan) were fitted with a surgically implanted jugular vein catheter for sequential blood collection (Culex NxT Automated In Vivo Sampling System; BASi, West Lafayette, IN), and monitored daily. RTD-1 dissolved in saline was injected subcutaneously at 5 mg/kg to 4 animals. Approximately 200 μl of blood was collected before peptide administration and at 0.25, 0.5, 1, 2, 4, 6, 8, 12, 18, 24, 30, 36, 48, 60, and 72 h after RTD-1 injection. Blood was collected into vials containing K3EDTA and plasma was collected after centrifugation. Plasma concentrations of RTD-1 were determined after solid phase extraction (SPE) by weak cation exchange (Oasis WCX, Waters, Milford, MA) and quantitation by C18 RP-UPLC, photodiode array (PDA) detection, and electrospray-ionization mass spectrometry (ESI-MS). Chromatography was performed on an Acquity H-class UPLC with an analytical PDA detector using Empower 3 software (Waters). Quantitative mass spectrometry was performed on post PDA eluent using a Micromass Quattro Ultima mass spectrometer with MassLynx 4.1 (Waters). Pharmacokinetic analysis was performed using parametric population modeling with maximum likelihood estimation via the EM algorithm with sampling (MLEM) as implemented in the ADAPT 5 (Version 5.0.49) PK/PD Systems Analysis Software (Biomedical Simulations Resource, University of Southern California).

The conditions of data set [1]: cited from earlier work.
Where [2] appears, read: male, Sprague Dawley, rat, sc, 5 mg/kg.
Setting [3] is: single 5 mg/kg s.c., male Sprague Dawley rats, n = 4, SPE, RP-UPLC/ESI-MS, 2-compartment population model.

Bridge positions count the residues as written; N and C are the ends. Peptide text beside a SMILES is read from it.

The term half-life denotes the time needed for the level to fall by half in the phase considered. The low end stands for rapid decline, the high end for slow decline. In “in vivo” (setting [2]), `CC[C@H](C)[C@@H]1NC(=O)[C@@H]2CSSC[C@H](NC(=O)[C@H](CCCNC(=N)N)NC(=O)[C@@H]3CSSC[C@H](NC1=O)C(=O)N[C@@H]([C@@H](C)O)C(=O)N[C@@H](CCCNC(=N)N)C(=O)NCC(=O)N[C@@H](Cc1ccccc1)C(=O)N3)C(=O)N[C@@H](CC(C)C)C(=O)N[C@H]1CSSC[C@H](NC(=O)[C@H](C(C)C)NC(=O)CNC(=O)[C@H](CCCNC(=N)N)NC(=O)[C@H](CCCNC(=N)N)NC1=O)C(=O)N[C@@H](CCCNC(=N)N)C(=O)N2` [RTD-1, rhesus θ-defensin 1] (cyclo(GFCRCLCRRGVCRCICTR); disulfide 3-16, 5-14, 7-12) had a clearance of 3.55 mL/h/kg and a half-life of 32.3 h. In “in vivo” (setting [3]), this molecule showed a distribution clearance of 22.3 mL/h/kg and a distribution half-life of 0.285 h. In addition, the “stability in human plasma” value in data set [1] is listed as “highly stable”.

The values are drawn from PMC5690597, “Suppression and resolution of autoimmune arthritis by rhesus θ-defensin-1, an immunomodulatory macrocyclic peptide” (PLoS ONE, 2017).
